Experimental data from patent US6596759B2, “Medicament for treatment of irritable bowel syndrome” (Mitsubishi Chemical Corporation, priority 1997, dated 2003).
Entries after “also recorded” stand apart in the source; their conditions may differ. Marks after values point to notes of the source that are not given here.

Key:
[1] = tested on: defecation number induced by restraint stress in rats; test: Increase of defecation number induced by restraint stress (animal model of irritable bowel syndrome); assay type: in vivo; details: rat; for Effect on the defecation-suppressing action of the medicament of the present invention (combination of drugs): other drug given 1 hour, medicament 30 minutes before the restraint, FIG. 1; for Suppression of the increase of defecation number induced by the restraint (in words): over the doses of Table 3; for Suppressive action on stress-induced defecation at a high dose (in words): high dose (amitriptyline 100 mg/kg, diazepam 30 mg/kg)
Experimental: Increase of defecation number induced by restraint stress has widely been used as a pathological model of irritable bowel syndrome (Miyata et al., J. Pharmacol. Exp. Ther., 261, pp.297-303, 1992). Therefore, pathological model animals of irritable bowel syndrome were prepared according to the method of Williams et al. (Williams et al., Gastroenterology, 94, pp.611-621, 1988) and used for evaluation of the effectiveness of the medicament of the present invention. The medicament of the present invention was administered to the rats, and after 1 hour, their forelegs were fixed on their trunks with adhesive tapes under ether anesthesia (load of restraint stress). One hour after the restraint, defecation number was counted and the number was compared with that of the control group. In the experiments using a combination of drugs, the medicament of the present invention was administered to the animals 30 minutes before the restraint, and the other drug was administered 1 hour before the restraint.

[2] = tested on: defecation induced by forced swimming stress in rats; details: rat; cited from earlier work
[3] = tested on: animal model; details: cited from earlier work
[4] = tested on: patients with irritable bowel syndrome; details: double-blind test; cited from earlier work

SMILES | Suppression of the increase of defecation number induced by the restraint (in words) [1] | Suppression rate of defecation number (%) ([1]; oral, 10 mg/kg) | Suppression rate of defecation number (%) ([1]; oral, 30 mg/kg) | Suppression rate of defecation number (%) ([1]; oral, 100 mg/kg) | other results
c1cnc(N2CCNCC2)nc1 [1-PP, 1-(2-pyrimidinyl)piperazine] | – | – | – | – | Effect on the defecation-suppressing action of the medicament of the present invention (combination of drugs) [1]: inhibited; also recorded: antagonized
CCCN(CCC)C1CCc2cccc(O)c2C1 (stereo not shown) [8-OH-DPAT, 8-hydroxy-2-(di-n-propylamino)tetralin] | the defecation due to the stress was suppressed | – | – | – | Suppression rate of defecation number (%) ([1]; intraperitoneal, 0.03 mg/kg): 25%; Suppression rate of defecation number (%) ([1]; intraperitoneal, 0.1 mg/kg): 74* %; Suppression rate of defecation number (%) ([1]; intraperitoneal, 0.3 mg/kg): 97* %
CN(C)CCC=C1c2ccccc2CCc2ccccc21 [Amitriptyline, amitriptyline] | – | 17 | 6% | 69* % | Suppressive action on stress-induced defecation at a high dose (in words) ([1]; oral): exhibited significant suppressive actions; Efficacy on stress-induced defecation at a lower dose (in words) ([1]; oral): no efficacy
O=C1CC2(CCCC2)CC(=O)N1CCCCN1CCN(c2ncccn2)CC1 [Buspirone, buspirone] | failed to exhibit significant efficacy | 12 | 12% | 44% | Defecation suppressing activity, forced swimming stress [2]: exhibited significant defecation suppressing activity
c1ccc2c(c1)OC[C@H](CNCCCOc1ccc3c(c1)OCO3)O2 [Compound No. 1, 5-[3 [(2S)-(1,4-benzodioxan-2-ylmethyl)amino]propoxy]-1,3-benzo-dioxol] | dose-dependently suppressed | – | – | – | Anxiolytic activity [3]: anxiolytic activity of the medicament of the present invention was observed; Suppression rate of defecation number (%) ([1]; oral, 0.3 mg/kg): 29%; Suppression rate of defecation number (%) ([1]; oral, 1 mg/kg): 45* %; Suppression rate of defecation number (%) ([1]; oral, 3 mg/kg): 81* %
CN1C(=O)CN=C(c2ccccc2)c2cc(Cl)ccc21 [Diazepam, diazepam] | – | 36 | 77* % | – | Suppression rate of defecation number (%) ([1]; oral, 3 mg/kg): 26%; Suppressive action on stress-induced defecation at a high dose (in words) ([1]; oral): exhibited significant suppressive actions; Efficacy on stress-induced defecation at a lower dose (in words) ([1]; oral): no efficacy
CNCCC(Oc1ccc(C(F)(F)F)cc1)c1ccccc1 (stereo not shown) [Fluoxetin] | – | 24 | 15% | 26% | –
O=C1[C@@H]2[C@H]3CC[C@H](C3)[C@@H]2C(=O)N1CCCCN1CCN(c2ncccn2)CC1 [Tandospirone, tandospirone] | failed to exhibit significant efficacy | – | 8% | 4% | Therapeutic efficacy in irritable bowel syndrome compared with a placebo [4]: failed to give a significant difference; Suppression rate of defecation number (%) ([1]; oral, 300 mg/kg): 44%
COc1ccccc1N1CCN(CC(C(=O)NC(C)(C)C)c2ccccc2)CC1 (stereo not shown) [WAY100135, N-tert-butyl-3-(4-(2-methoxyphenyl)piperazin-1-yl)-2-phenyl-propanamide] | – | – | – | – | Effect on the defecation-suppressing action of the medicament of the present invention (combination of drugs) [1]: inhibited
